Source: EP2305274A1, “Use of WNT stimulators for treating demyelinating diseases” (Centre National de la Recherche Scientifique (CNRS), priority 2009, dated 2011)
Read-outs that look alike come from different tables or passages of the source.

Tests used:
GSK3 = settings: cited from earlier work
MSC80 cells = assay: Western blot of MPZ, PMP22 and β-catenin proteins in MSC80 cells; format: cell-based, mouse; settings: SB216763 10 µM, after 3h, lasted until 24h
Excerpt: Western blot analysis confirmed the stimulation of MPZ and PMP22 expression. […] This difference may be due to specific mRNA and protein half-life.
The increase in PMP22 protein expression was timedependent.

[1] = GSK3 inhibitors, see Meijer L et al, Trends in Pharmacological Sciences 2004

Molecule | IC50 (GSK3; [1]) [nM] | further results
CC(=O)O/N=C1/C(=C2/C(=O)Nc3cc(Br)ccc32)Nc2ccccc21 [6-bromoindirubin-3'acetoxime, (2'Z,3'E)-6-Bromoindirubin-3'-acetoxime] | < 100 | –
OCCCNc1cc(-c2ccnc(Nc3cccc(Cl)c3)n2)ccn1 [CGP60474, 3-{4-[2-(3-chlorophenylamino)-pyrimidin-4-yl]-pyridin-2-yl-amino}-propanol] | < 100 | –
[H]/N=C(/N)SCCCn1cc(C2=C(c3cn(C)c4ccccc34)C(=O)NC2=O)c2ccccc21 [Ro318220] | < 100 | –
Cn1cc(C2=C(c3ccc(Cl)cc3Cl)C(=O)NC2=O)c2ccccc21 [SB216763] | […] | expression of MPZ protein (Western blot) (MSC80 cells): enhanced; expression of PMP22 protein (Western blot) (MSC80 cells): enhanced; expression of β-catenin protein (Western blot) (MSC80 cells): enhanced
Nc1cccc(-c2cc3c(Oc4cccc(O)c4)ncnc3[nH]2)c1 [TWS119] | < 100 | –
CHIR98014 | – | IC50 (GSK3): < 100 nM
